From ChEMBL document CHEMBL6121052, “Design of ROS-Triggered Sesquiterpene Lactone SC Prodrugs as TrxR1 Covalent Inhibitors for the Treatment of Non-Small Cell Lung Cancer” (J Med Chem, 2025)
The source made the active and inactive calls. The calls are words filed in the database; no cut-off is given here.

Legend:
[1] = target: T1, Thioredoxin reductase 1, cytoplasmic (Homo sapiens) (UniProt Q16881); experiment: Inhibition of TrxR1 in human A549 cells; type: cell-based; details: dose <= 10.0 µM
T1 sequence (whole entry): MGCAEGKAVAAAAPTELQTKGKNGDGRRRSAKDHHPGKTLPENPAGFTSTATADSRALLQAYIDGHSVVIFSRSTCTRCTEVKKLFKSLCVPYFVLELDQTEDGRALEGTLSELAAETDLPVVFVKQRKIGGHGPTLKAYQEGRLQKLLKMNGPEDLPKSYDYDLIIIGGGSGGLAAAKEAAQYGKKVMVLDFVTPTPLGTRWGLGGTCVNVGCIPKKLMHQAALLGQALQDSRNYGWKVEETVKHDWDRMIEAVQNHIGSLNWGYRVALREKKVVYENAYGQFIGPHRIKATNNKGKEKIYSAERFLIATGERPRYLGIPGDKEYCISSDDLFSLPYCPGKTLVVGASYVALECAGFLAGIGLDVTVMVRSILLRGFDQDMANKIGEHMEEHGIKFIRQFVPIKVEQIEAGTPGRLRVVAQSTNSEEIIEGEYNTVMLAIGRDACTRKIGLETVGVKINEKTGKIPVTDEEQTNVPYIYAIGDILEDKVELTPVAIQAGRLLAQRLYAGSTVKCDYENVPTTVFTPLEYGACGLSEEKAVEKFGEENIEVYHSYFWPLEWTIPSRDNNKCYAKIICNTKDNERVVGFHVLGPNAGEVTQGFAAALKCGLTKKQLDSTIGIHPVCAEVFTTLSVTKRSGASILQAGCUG

A549 [2] = experiment: Downregulation of TrxR1 level in human A549 cells upto 10 uM incubated for 24 hrs by Western blot analysis; type: functional, cell-based
A549 [3] = experiment: Inhibition of colony formation in human A549 cells assessed as reduction in colony number at 4 uM incubated for 14 days by crystal violet staining based analysis; type: functional, cell-based; details: time 14.0 day
A549 [4] = experiment: Antiproliferative activity against human A549 cells assessed as decrease in EdU positive cells at 4 uM measured after 14 days by Hoechst 33342 staining based fluorescence microscopic analysis; type: functional, cell-based; details: time 14.0 day
NCI-H1299 [5] = experiment: Antiproliferative activity against human NCI-H1299 cells assessed as decrease in EdU positive cells at 4 uM measured after 14 days by Hoechst 33342 staining based fluorescence microscopic analysis; type: functional, cell-based; details: time 14.0 day
A549 [6] = experiment: Induction of morphological changes in human A549 cells assessed as increase in number of contracted shapes upto 10 uM; type: functional, cell-based
NCI-H1299 [7] = experiment: Induction of morphological changes in human NCI-H1299 cells assessed as increase in number of contracted shapes upto 10 uM; type: functional, cell-based
A549 [8] = experiment: Induction of apoptosis in human A549 cells assessed as increase in green fluorescence intensity upto 10 uM by AO/EB staining based fluorescence microscopic analysis; type: functional, cell-based
NCI-H1299 [9] = experiment: Induction of apoptosis in human NCI-H1299 cells assessed as chromatin condensation upto 10 uM by Hoechst 33258 staining based fluorescence microscopic analysis; type: functional, cell-based
A549 [10] = experiment: Induction of apoptosis in human A549 cells assessed as viable cells at 2.5 uM measured after 48 hrs by Annexin V/FITC staining based flow cytometric analysis (reference value: 90.8 %); type: functional; details: read-out: Activity
A549 [11] = experiment: Induction of apoptosis in human A549 cells assessed as viable cells at 5 uM measured after 48 hrs by Annexin V/FITC staining based flow cytometric analysis (reference value: 90.8 %); type: functional; details: read-out: Activity
A549 [12] = experiment: Induction of apoptosis in human A549 cells assessed as early apoptotic cells at 5 uM measured after 48 hrs by Annexin V/FITC staining based flow cytometric analysis (reference value: 1.31 %); type: functional
A549 [13] = experiment: Induction of apoptosis in human A549 cells assessed as late apoptotic cells at 5 uM measured after 48 hrs by Annexin V/FITC staining based flow cytometric analysis (reference value: 5.37%); type: functional
A549 [14] = experiment: Induction of apoptosis in human A549 cells assessed as necrotic cells at 5 uM measured after 48 hrs by Annexin V/FITC staining based flow cytometric analysis (reference value: 2.52 %); type: functional
A549 [15] = experiment: Induction of apoptosis in human A549 cells assessed as late apoptotic cells at 10 uM measured after 48 hrs by Annexin V/FITC staining based flow cytometric analysis (reference value: 5.37%); type: functional
NCI-H1299 [16] = experiment: Induction of apoptosis in human NCI-H1299 cells assessed as necrotic cells at 2.5 uM measured after 48 hrs by Annexin V/FITC staining based flow cytometric analysis (reference value: 0.62%); type: functional
NCI-H1299 [17] = experiment: Induction of apoptosis in human NCI-H1299 cells assessed as necrotic cells at 10 uM measured after 48 hrs by Annexin V/FITC staining based flow cytometric analysis (reference value: 0.62%); type: functional
NCI-H1299 [18] = experiment: Induction of apoptosis in human NCI-H1299 cells assessed as decrease in BCl-2 expression at upto 10 uM incubated for 24 hrs by Western blot analysis; type: functional, cell-based
NCI-H1299 [19] = experiment: Induction of ferroptosis in human NCI-H1299 cells assessed as effect on GPX4 protein expression at 10 uM incubated for 24 hrs by Western blotting analysis; type: functional, cell-based
NCI-H1299 [20] = experiment: Induction of ROS accumulation in human TrxR1 knockdown NCI-H1299 cells incubated for 24 hrs; type: functional, cell-based
NCI-H1299 [21] = experiment: Antitumor activity against human NCI-H1299 cells xenografted in po dosed BALB/c mouse assessed as reduction in tumor growth administered every 2 days for 2 weeks; type: functional, organism-based; details: dose 5-10 mg/kg
[22] = Toxicity in BALB/c mouse assessed as body weight loss at 5 to 10 mg/kg, po administered every 2 days for 2 weeks; type: organism-based; details: in vivo, 336 h, dose 5-10 mg/kg
[23] = Toxicity in BALB/c mouse assessed as change in viscera index at 5 to 10 mg/kg, po administered every 2 days for 2 weeks; type: organism-based; details: in vivo, 336 h, dose 5-10 mg/kg
[24] = Toxicity in BALB/c mouse assessed as heart damage at 5 to 10 mg/kg, po administered every 2 days for 2 weeks by H and E staining based analysis; type: organism-based; details: in vivo, 336 h, dose 5-10 mg/kg
[25] = Toxicity in BALB/c mouse assessed as spleen damage at 5 to 10 mg/kg, po administered every 2 days for 2 weeks by H and E staining based analysis; type: organism-based; details: in vivo, 336 h, dose 5-10 mg/kg
[26] = Toxicity in BALB/c mouse assessed as lung damage at 5 to 10 mg/kg, po administered every 2 days for 2 weeks by H and E staining based analysis; type: organism-based; details: in vivo, 336 h, dose 5-10 mg/kg
NCI-H1299 [27] = experiment: Antitumor activity against human NCI-H1299 cells xenografted in BALB/c mouse assessed as decrease in GPX4 expression at 5 to 10 mg/kg, po administered every 2 days for 2 weeks by IHC analysis; type: functional, organism-based; details: dose 5-10 mg/kg
[28] = Half life in male Sprague-Dawley rat at 10 mg/kg, iv measured upto 24 hrs by LC-MS/MS analysis; type: ADME, organism-based; details: in vivo
[29] = Tmax in male Sprague-Dawley rat at 10 mg/kg, iv measured upto 24 hrs by LC-MS/MS analysis; type: ADME, organism-based; details: in vivo
[30] = AUC (0 to infinity) in male Sprague-Dawley rat at 10 mg/kg, iv measured upto 24 hrs by LC-MS/MS analysis; type: ADME, organism-based; details: in vivo
[31] = Volume of distribution at steady state in male Sprague-Dawley rat at 10 mg/kg, iv measured upto 24 hrs by LC-MS/MS analysis; type: ADME, organism-based; details: in vivo, read-out: Vdss

In the case of `CCCNC(=O)O[C@@H]1/C=C(\C)C[C@H]2C=C(C[C@@H]3OC(=O)[C@H](CSC(=S)N(C)C)[C@H]31)C(=O)O2`, the inhibition [1] is reported as “Dose-dependent-effect”, the Activity (A549 [2]) is reported as “Active” and the inhibition (A549 [3]) is reported as “Active”. The Activity (A549 [4]) was “Active”, the Activity (NCI-H1299 [5]) was “Active” and the Activity (A549 [6]) was “Active”. The Activity (NCI-H1299 [7]) was “Active”, the Activity (A549 [8]) was “Active” and the Activity (NCI-H1299 [9]) was “Active”. It also gave a viability at 2.5 µM (A549 [10]) of 87.7%, a viability at 5 µM (A549 [11]) of 77.8% and an Activity (A549 [12]) of 2.47%. It also gave an Activity (A549 [13]) of 16.1%, an Activity (A549 [14]) of 3.5% and an Activity (A549 [15]) of 24.3%. For the same compound, the Activity (NCI-H1299 [16]) was 1.2%, the Activity (NCI-H1299 [17]) was 1.01% and the Activity (NCI-H1299 [18]) was “Active”. For the same compound, the Activity (NCI-H1299 [19]) was “Active”, the Activity (NCI-H1299 [20]) was “Active” and the Activity (NCI-H1299 [21]) was “Dose-dependent-effect”. For the same compound, the Activity [22] was “Non-toxic”, the Activity [23] was “Non-toxic” and the Activity [24] was “Non-toxic”. The Activity [25] was “Non-toxic”, the Activity [26] was “Non-toxic” and the Activity (NCI-H1299 [27]) was “Active”. The half-life [28] was 3.85 h, the Tmax [29] was 1.98 min and the AUC(0-inf) [30] was 1080 ng·h/mL. It also gave a Vd [31] of 57.6 L/kg.
